Source: US4473573A, “N-(2-methoxyethyl)-noroxymorphone and pharmaceutical compositions for relieving pain containing same” (Boehringer Ingelheim KG, priority 1982, dated 1984)
Where a name gives a salt, the structure may show the parent alone. Read-outs that look alike come from different tables or passages of the source.

Assays:
mice [1] = details: ascribed; opioid kappa agonist of the benzomorphane series; cited from earlier work
[2] = Straub morphine tail phenomenon / compulsive circular motion (typical opiate side effects); type: in vivo; details: hydrochloride
Excerpt: (§1) The non-morphine-like activity profile can be recognized from the absence of typical side effects produced by opiates.

[3] = system: morphine-dependent monkeys; assay: withdrawal test in morphine-dependent monkeys; type: in vivo
Excerpt: as §1
In morphine-dependent monkeys there is found to be increased sensitivity of morphine antagonists which trigger withdrawal symptoms, dependent upon dosage.

[4] = writhing test (analgesic property); type: in vivo; details: s. c.; for ED50: sc
mice [5] = assay: therapeutic range based upon the effect in the writhing test; type: in vivo; details: LD50 s. c. based upon the effect in the writhing test
Excerpt: (§2) The comparison values are 1600 for the standard analgesic morphine and 169 for the agonist-antagonist pentazocine which is used therapeutically as an analgesic.

acute toxicity (LD50) = details: mouse, in vivo, sc; s. c., mice
Excerpt: as §2

mice [6] = assay: inhibition of locomotion (sedation); type: in vivo; details: up to 100 mg/kg for Formula I, comparison substances in or near the therapeutic dosage range
Excerpt: Another advantage of the compound of Formula I over newer substances, not yet used therapeutically, selected from the opioid kappa agonists of the benzomorphane series, to which a high therapeutic range is also ascribed (for example, 1800 for ethylketazocine), is the absence of any strong sedation. This can be recognized in the comparison substances as an inhibition of locomotion in mice in or near the therapeutic dosage range. In the compound of Formula I, however, this effect was not observed in the range tested up to very high doses of 100 mg/kg.

[7] = system: analgesia produced by morphine; assay: Haffner test, reversal of the analgesia produced by morphine; type: in vivo; details: s. c.; for ED50: sc, read-out: AD50, Haffner test
[8] = activity compared with the compound of Formula I (test not named); details: for effect of etherification of the phenolic hydroxy group on activity: compared with Formula I; for activity relative to the compound of Formula I: compound of Formula I = 1
[9] = cited from earlier work

Structure (SMILES): CC[C@]12CCN(CC3CC3)[C@H](C(=O)c3ccc(O)cc31)[C@@H]2C [ethylketazocine]
- therapeutic range (mice [1]): 1800

Structure (SMILES): COCCN1CC[C@]23c4c5ccc(O)c4O[C@H]2C(=O)CC[C@@]3(O)[C@H]1C5 [N-(2-methoxyethyl)-noroxymorphone hydrochloride]
- Straub morphine tail phenomenon [2]: does not show
- compulsive circular motion [2]: does not show
- relieving the withdrawal symptoms in morphine-dependent monkeys ([3]; after morphine has been withdrawn, hydrochloride): not capable of relieving the withdrawal symptoms
- effect on withdrawal symptoms (antagonist behaviour) ([3]; morphine-dependent monkeys, hydrochloride): aggravates the withdrawal symptoms

Structure (SMILES): COCCN1CC[C@]23c4c5ccc(O)c4O[C@H]2C(=O)CC[C@@]3(O)[C@H]1C5 [Formula I, N-(2-methoxyethyl)-noroxymorphone]
- times stronger than morphine, writhing test ([4]; relative to morphine): about 36 times
- times stronger than oxymorphone, writhing test ([4]; relative to oxymorphone): about 2.5 times
- ED50 [4]: 0.013 mg/kg
- therapeutic range (mice [5]): 103,846
- LD50 (acute toxicity (LD50)): 1350 mg/kg
- antagonist strength compared with naloxone ([3]; morphine-dependent monkeys, triggering of withdrawal symptoms): as strong as naloxone
- inhibition of locomotion (strong sedation) (mice [6]): not observed
- antagonistic activity relative to naloxone ([7]; Haffner test, naloxone = 1): about 1/10
- ED50 [7]: 0.3 mg/kg

Structure (SMILES): CN1CC[C@]23c4c5ccc(O)c4O[C@H]2C(=O)CC[C@@]3(O)[C@H]1C5 [oxymorphone]
- ED50 [4]: 0.032 mg/kg

Structure (SMILES): C=CCN1CC[C@]23c4c5ccc(O)c4O[C@H]2C(=O)CC[C@@]3(O)[C@H]1C5 [naloxone, reference compound]
- ED50 [7]: 0.03 mg/kg

Structure (SMILES): CCOCCN1CC[C@]23c4c5ccc(OC)c4O[C@H]2C(=O)CC[C@@]3(O)[C@H]1C5 [Formula IIIc]
- effect of etherification of the phenolic hydroxy group on activity [8]: reduces the activity

Structure (SMILES): O=C1CC[C@@]2(O)[C@H]3Cc4ccc(O)c5c4[C@@]2(CCN3CC2CC2)[C@H]1O5 [naltrexone]
- antagonist character ([9]; in vivo): pure antagonists
- analgesic activity ([9]; pure antagonists): no analgesic activity

Structure (SMILES): COCCCN1CC[C@]23c4c5ccc(O)c4O[C@H]2C(=O)CC[C@@]3(O)[C@H]1C5 [Formula IIId]
- activity relative to the compound of Formula I [8]: 1/25

Structure (SMILES): CN1CC[C@]23c4c5ccc(O)c4O[C@H]2[C@@H](O)C=C[C@H]3[C@H]1C5 [morphine, reference compound]
- ED50, writhing test [4]: 0.47 mg/kg
- therapeutic range (mice [5]): 1600

Structure (SMILES): CCOCCN1CC[C@]23c4c5ccc(O)c4O[C@H]2C(=O)CC[C@@]3(O)[C@H]1C5 [Formula IIIa]
- activity relative to the compound of Formula I [8]: 1/20

Structure (SMILES): CC(C)=CCN1CCC2(C)c3cc(O)ccc3CC1C2C (centres unmarked) [pentazocine]
- therapeutic range (mice [5]): 169

Structure (SMILES): COCCN1CC[C@]23c4c5ccc(OC)c4O[C@H]2C(=O)CC[C@@]3(O)[C@H]1C5 [Formula IIIb]
- effect of etherification of the phenolic hydroxy group on activity [8]: reduces the activity
- activity relative to the compound of Formula I [8]: 1/84
